Assay results taken from patent publication US11008301B2, “Piperidinone formyl peptide 2 receptor agonists” (BRISTOL-MYERS SQUIBB COMPANY, priority 2017, dated 2021).
Read-outs that look alike come from different tables or passages of the source.

Assays:
[1] = target: human FPR2 (Homo sapiens (Human), UniProt P25090); assay: FPR2 cyclic adenosine monophosphate (cAMP) assay; format: cell-based; conditions: CHO cells overexpressing human FPR2
Procedure: (§1) FPR2 and FPR1 Cyclic Adenosine Monophosphate (cAMP) Assays. A mixture of forskolin (5 μM final for FPR2 or 10 μM final for FPR1) and IBMX (200 μM final) were added to 384-well Proxiplates (Perkin-Elmer) pre-dotted with test compounds in DMSO (1% final) at final concentrations in the range of 1.7 nM to 100 μM. Chinese Hamster Ovary cells (CHO) overexpressing human FPR1 or human FPR2 receptors were cultured in F-12 (Ham's) medium supplemented with 10% qualified FBS, 250 μg/ml zeocin and 300 μg/ml hygromycin (Life Technologies). Reactions were initiated by adding 2,000 human FPR2 cells per well or 4,000 human FPR1 cells per well in Dulbecco's PBS (with calcium and magnesium) (Life Technologies) supplemented with 0.1% BSA (Perkin-Elmer). The reaction mixtures were incubated for 30 min at room temperature. The level of intracellular cAMP was determined using the HTRF HiRange cAMP assay reagent kit (Cisbio) according to manufacturer's instruction. Solutions of cryptate conjugated anti-cAMP and d2 flurorophore-labelled cAMP were made in a supplied lysis buffer separately. Upon completion of the reaction, the cells were lysed with equal volume of the d2-cAMP solution and anti-cAMP solution. After a 1-h room temperature incubation, time-resolved fluorescence intensity was measured using the Envision (Perkin-Elmer) at 400 nm excitation and dual emission at 590 nm and 665 nm. A calibration curve was constructed with an external cAMP standard at concentrations ranging from 1 μM to 0.1 pM by plotting the fluorescent intensity ratio from 665 nm emission to the intensity from the 590 nm emission against cAMP concentrations. The potency and activity of a compound to inhibit cAMP production was then determined by fitting to a 4-parametric logistic equation from a plot of cAMP level versus compound concentrations.

[2] = target: human FPR1 (Homo sapiens (Human), UniProt P21462); assay: FPR1 cyclic adenosine monophosphate (cAMP) assay; format: cell-based; conditions: CHO cells overexpressing human FPR1; forskolin 10 μM; inhibition of cAMP production; read-out: hFPR1 cAMP EC50
Procedure: as §1

[3] = forskolin 5 μM, inhibition of cAMP production, read-out: hFPR2 cAMP2 EC50
[4] = cAMP assay, read-out: hFPR2 agonist activity EC50 (hFPR2 Assay)

Sequence of human FPR1 (P21462 whole entry): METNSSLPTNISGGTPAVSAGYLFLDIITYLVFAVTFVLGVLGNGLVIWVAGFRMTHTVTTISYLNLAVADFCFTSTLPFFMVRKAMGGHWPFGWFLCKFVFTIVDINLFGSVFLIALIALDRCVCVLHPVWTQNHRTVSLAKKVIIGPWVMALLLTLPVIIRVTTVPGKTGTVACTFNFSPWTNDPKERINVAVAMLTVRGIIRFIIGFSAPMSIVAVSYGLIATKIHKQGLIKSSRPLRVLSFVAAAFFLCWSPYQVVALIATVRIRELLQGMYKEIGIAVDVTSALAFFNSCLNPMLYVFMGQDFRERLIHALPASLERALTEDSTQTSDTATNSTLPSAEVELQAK
Sequence of human FPR2 (P25090 whole entry): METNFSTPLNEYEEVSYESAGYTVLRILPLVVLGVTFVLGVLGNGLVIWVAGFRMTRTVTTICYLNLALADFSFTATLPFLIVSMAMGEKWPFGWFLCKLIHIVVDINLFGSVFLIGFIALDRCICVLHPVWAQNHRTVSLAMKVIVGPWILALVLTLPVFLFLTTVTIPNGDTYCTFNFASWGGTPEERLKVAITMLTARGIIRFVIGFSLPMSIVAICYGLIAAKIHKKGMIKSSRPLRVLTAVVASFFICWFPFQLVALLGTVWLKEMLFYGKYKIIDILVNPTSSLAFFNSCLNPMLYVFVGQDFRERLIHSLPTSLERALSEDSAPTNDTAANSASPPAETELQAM

| SMILES | EC50 [1, 3] [µM] | EC50 [2] [µM] | EC50 [1, 4] [µM] |
| --- | --- | --- | --- |
| O=C(Nc1ccc(Cl)cc1)N[C@@H]1CCCN(c2ccc(N3C[C@H]4COC[C@H]4C3)cc2)C1=O [Example 95] | 0.0025 | 0.076 | – |
| O=C(Nc1ccc(C(F)(F)F)cc1)N[C@@H]1CCCN(c2ccc(N3CCCCC3)cc2)C1=O [Example 45] | 0.003 | 0.011 | – |
| O=C(Nc1ccc(C(F)(F)F)cc1)N[C@@H]1CCCN(c2ccc(N3CCOCC3)nc2)C1=O [Example 54, (R)-1-(1-(6-Morpholinopyridin-3-yl)-2-oxopiperidin-3-yl)-3-(4-(trifluoromethyl)phenyl)urea] | 0.031 | 0.92 | – |
| CN(C)C1CCN(c2ccc(N3CCC[C@@H](NC(=O)Nc4ccc(Cl)cc4)C3=O)cc2F)C1 (some centres unmarked) [Example 83] | 0.00039 | 1.1 | – |
| CN(C)C1CCCN(c2ccc(N3CCC[C@@H](NC(=O)Nc4ccc(C(F)(F)F)cc4)C3=O)cc2)C1 (some centres unmarked) [Example 77] | 0.00018 | 1.1 | – |
| COCC1CCCCN1c1ccc(N2CCC[C@@H](NC(=O)Nc3ccc(C(F)(F)F)cc3)C2=O)cc1 (some centres unmarked) [Example 14] | 0.0021 | 0.036 | – |
| COC[C@@H]1CCCN1c1ccc(N2CCC[C@@H](NC(=O)Nc3ccc(Cl)cc3)C2=O)cc1 [Example 26] | 0.0037 | 0.012 | ≤ 0.01 |
| O=C(Nc1ccc(Cl)cc1)N[C@@H]1CCCN(c2ccc(N3CCC4(CCCO4)CC3)cc2)C1=O [Example 102] | 0.015 | 0.061 | – |
| O=C(Nc1ccc(C(F)(F)F)cc1)N[C@@H]1CCCN(c2ccc(N3C[C@H]4CC[C@@H](C3)O4)nc2)C1=O [Example 104] | 0.018 | 0.63 | – |
| O=C(Nc1ccc(C(F)(F)F)cc1)N[C@H]1CCCN(c2ccc(N3CC4(COC4)C3)cc2)C1=O [Example 9] | 0.54 | 1.5 | 0.1 to 1 |
| CN(C)C1CCN(c2ccc(N3CCC[C@@H](NC(=O)Nc4ccc(Cl)cc4F)C3=O)c(F)c2)C1 (some centres unmarked) [Example 81] | 0.00031 | 1.7 | – |
| O=C(Nc1ccc(C(F)(F)F)cc1)N[C@@H]1CCCN(c2ccc(N3CCCCC3=O)cc2)C1=O [Example 4] | 0.028 | 0.41 | 0.01 to 0.1 |
| O=C(Nc1ccc(C(F)(F)F)cn1)N[C@@H]1CCCN(c2ccc(N3CC4(COC4)C3)cc2)C1=O [Example 12] | 0.38 | 5 | 0.1 to 1 |
| COCC1CCCCN1c1ccc(N2CCC[C@@H](NC(=O)Nc3ccc(C(F)(F)F)nc3)C2=O)cc1 (some centres unmarked) [Example 15] | 0.032 | 0.66 | – |
| CC(=O)N[C@@H]1CCN(c2ccc(N3CCC[C@@H](NC(=O)Nc4ccc(C(F)(F)F)cc4)C3=O)cc2)C1 [Example 69] | 0.014 | 0.19 | – |
| O=C(Nc1ccc(C(F)(F)F)cc1)N[C@@H]1CCCN(c2ccc(N3CCCC(F)(F)C3)cc2)C1=O [Example 70] | 0.0024 | 0.067 | – |
| O=C(Nc1ccc(C(F)(F)F)cc1)N[C@@H]1CCCN(c2ccc(N3CCCC(CO)C3)nc2)C1=O (some centres unmarked) [Example 56] | 0.0018 | 0.045 | – |
| O=C(Nc1ccc(Cl)cc1)N[C@@H]1CCCN(c2ccc(N3C[C@H]4CC[C@@H](C3)O4)cc2F)C1=O [Example 107] | 0.0026 | 0.33 | – |
| O=C(Nc1ccc(C(F)(F)F)nc1)N[C@@H]1CCCN(c2ccc(N3CCCCC3=O)cc2F)C1=O [Example 50] | 0.33 | > 10 | – |
| CS(=O)(=O)N1CCN(c2ccc(N3CCC[C@@H](NC(=O)Nc4ccc(C(F)(F)F)cc4)C3=O)cc2)CC1 [Example 34] | 0.4 | 2.2 | – |
